For this data set, the system named is Salmonella enterica subsp. Enterica serovar Typhimurium (ATCC 29629, TA 1535). The data set is described as follows: Ames test. It counts as cell-based. Conditions: positive control. From the text: The Ames test was followed according to a previously reported procedure (Ames et al, 1973; Mortelmans and Zeiger, 2000). Briefly, the test organism Salmonella enterica subsp. Enterica serovar Typhimurium (ATCC® 29629-Strain Designations: TA 1535), an auxotrophic mutant, was provided by ATCC, Manassas, USA. This auxotrophic isolate requires histidine for its growth, due to a mutation in its DNA. Substances to be tested for their mutagenesis, could be added in the histidine-free medium of the test organism, to monitor their ability to reverse back the mutated Salmonella typhimurium to a prototrophic state, enabling it to grow. The anti-bacterial mouthwash was incorporated in the histidine-free medium used in the Ames test, at four different concentrations namely, 1/100×, 1×, 1.5×, and 2× (where X is the dilution used in mouth rinsing experiments), while another batch of the medium was deprived of the Mouthwash substance. Ethidium bromide, an expected positive inducer of mutations in the test organism, was incorporated in another batch of the same histidine-free medium at two concentrations namely, 20 and 200 nmole. The S. Typhimurium was cultured in triplicate onto the 4 differently supplemented media, and on the 5th control medium that was deprived of supplementation, to observe the growth of this test organism. The bacterium was spread over these media with small amounts of histidine that helps in the initiation of the growth, and once this amino acid is depleted, only the mutated cells by the supplemented substance will be able to synthesize their histidine, and to continue their growth. Thus, mutagenicity is determined in this research from the proportion of the average colony forming units formed on triplicate of the supplemented medium with the anti-bacterial mouthwash versus that formed on triplicate of the non-supplemented medium, with the growth on Ethidium bromide acting as a positive control of the test.
The results of the Ames test in relation to reversion of the S. Typhimurium test organism from its auxotrophic to prototrophic nature is shown in Table 4.

Structures are written as SMILES.

Consider `CC[n+]1c(-c2ccccc2)c2cc(N)ccc2c2ccc(N)cc21` [Ethidium bromide], for which the “Mean % increase in S. Typhimurium CFU count of triplicate relative to mean triplicate count on minimal Histidine-supplemented medium” value by setting is: (20 nmol/plate) 0%; (20 nmol/plate, listed as Eth) 0.0%; (200 nmol/plate, apparent reversion of mutation (P<0.05)) 12.5%.

These data come from US9855209B1, “Anti-bacterial mouthwash” (KING ABDULAZIZ UNIVERSITY, priority 2017, dated 2018).
